Measurements taken from US6759236B1, “Methods to enhance and confine expression of genes” (Research Development Foundation, priority 1998, dated 2004).

Columns and labels:
[1] = system: H358 lung carcinoma cell line; experiment: Heat inducible, tetracycline feed-forward amplification of p53 expression (p53 immunostaining); type: cell-based; settings: 0.1 μg/ml added 6 hours after heating (45° C., 20 min); reached in 10 hours; cells cotransfected with ptet-splice p53 wt and HSP-tetp-TET-ON
Protocol: Six hours after heat shock, transfected cells were treated with different doses of doxycycline. At various time points after the addition of doxycycline, the cells were stained with a p53 antibody. For each point, the digital images of fifty immunostained cells were captured using a Nikon microscope. […] The plasmid “HSP-tetp-TET-ON” was constructed by replacing the CMV promoter in ptet-on (Clontech) with 300 bp of the human heat shock protein promoter and the tetp promoter. H358, a non-small cell lung carcinoma cell line with a homozygous deletion of p53, was grown in RPMI+10% fetal calf serum. 10^7 exponentially growing cells were cotransfected with 50 μg of “ptet-splice p53 wt” and 10 μg of “HSP-tetp-TET-ON” by electroporation using a BRL cell-Porator at 1180 μF and 240 V in 0.8 ml RPMI+6 mM glucose. Transfected cells were plated out at 25% confluence for 36 hours and then half of them were heat-shocked at 45° C. for twenty minutes. Six hours after heat shock, cells were treated with different doses of doxycycline. […] The amount of protein expressed in each cell is proportional to the intensity of staining which was expressed as I=1/T, where T is a measure of the transmitted light/unit area.

[2] = cited from earlier work

Row | SMILES | amplification of p53 [1] | in vivo half-life ([2]; in vivo) [h] | level at the end of 24 hours ([2]; end of 24 hours) | time at which peak plasma concentration is reached ([2]; humans, single oral dose) [h] | fraction removed via the kidney ([2]; humans) | fraction never absorbed and excreted in the active form ([2]; in vivo)
1 | C[C@H]1c2cccc(O)c2C(=O)C2=C(O)[C@]3(O)C(=O)C(C(N)=O)=C(O)[C@@H](N(C)C)[C@@H]3[C@@H](O)[C@@H]21 [doxycycline] | more than 12 fold | 18 | – | – | – | –
2 | CN(C)[C@@H]1C(O)=C(C(N)=O)C(=O)[C@@]2(O)C(O)=C3C(=O)c4c(O)cccc4[C@@](C)(O)[C@H]3[C@H](O)[C@@H]12 [oxytetracycline] | – | 9 | < 25 % of input | 2 to 4 | 10-35% | 10-30%
